From ChEMBL document CHEMBL1201862, “PubChem BioAssay data set” (2004)
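Interpolation was linear, between the two tested concentrations surrounding the appropriate level; five concentrations were tested over 48 hours in 96-well plates. GI50: concentration for 50% inhibition of growth.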 Calls of active or inactive are those of the source. Cut-off read from the data, not from the text of the source: active = GI50 up to about 1.1 µM and inactive = higher.

How the values were obtained:
Test in all cases: NCI-60 cell line screen, 48 h
786-0 = test system: 786-0
COLO 205 = test system: COLO 205
HCT-15 = test system: HCT-15
Hs-578T = test system: Hs-578T
IGROV-1 = test system: IGROV-1
KM12 = test system: KM12
MDA-MB-231 = test system: MDA-MB-231
MOLT-4 = test system: MOLT-4
NCI-H23 = test system: NCI-H23
OVCAR-8 = test system: OVCAR-8
SF-295 = test system: SF-295
SK-MEL-5 = test system: SK-MEL-5
SK-OV-3 = test system: SK-OV-3
SNB-19 = test system: SNB-19
SNB-75 = test system: SNB-75
SR = test system: SR
T47D = test system: T47D
U-251 = test system: U-251
UACC-257 = test system: UACC-257
SK-MEL-28 = test system: SK-MEL-28

Compound	GI50 (786-0)	GI50 (COLO 205)	GI50 (HCT-15)	GI50 (Hs-578T)	GI50 (IGROV-1)	GI50 (KM12)	GI50 (MDA-MB-231)	GI50 (MOLT-4)	GI50 (NCI-H23)	GI50 (OVCAR-8)	GI50 (SF-295)	GI50 (SK-MEL-5)	GI50 (SK-OV-3)	GI50 (SNB-19)	GI50 (SNB-75)	GI50 (SR)	GI50 (T47D)	GI50 (U-251)	GI50 (UACC-257)	GI50 (SK-MEL-28)
CC(=O)c1ccc(/N=N/N2CCCC2)cc1	> 100 µM (inactive)	> 100 µM (inactive)	> 100 µM	> 100 µM (inactive)	> 100 µM (inactive)	> 100 µM (inactive)	> 100 µM (inactive)	> 100 µM (inactive)	> 100 µM (inactive)	> 100 µM (inactive)	> 100 µM (inactive)	> 100 µM (inactive)	> 100 µM (inactive)	> 100 µM (inactive)	> 100 µM (inactive)	> 100 µM (inactive)	> 100 µM (inactive)	> 100 µM (inactive)	> 100 µM (inactive)	
CN1C(=O)C2CCCC(=O)N2c2cccnc21 (configuration not stated)	> 100 µM (inactive)	> 100 µM (inactive)	> 100 µM	> 100 µM (inactive)	> 100 µM (inactive)	> 100 µM (inactive)	> 100 µM (inactive)	> 100 µM (inactive)	> 100 µM (inactive)	> 100 µM (inactive)	> 100 µM (inactive)	> 100 µM (inactive)		> 100 µM (inactive)		> 100 µM (inactive)	> 100 µM (inactive)	> 100 µM (inactive)	> 100 µM (inactive)	> 100 µM (inactive)
N#CC(C#N)=C1CCCCc2ccc([N+](=O)[O-])cc21	17.4 µM (inactive)	> 100 µM (inactive)	63.7 µM	> 100 µM (inactive)	> 100 µM (inactive)	> 100 µM (inactive)	> 100 µM (inactive)	41.8 µM (inactive)	> 100 µM (inactive)	> 100 µM (inactive)	> 100 µM (inactive)	> 100 µM (inactive)	> 100 µM (inactive)	> 100 µM (inactive)	> 100 µM (inactive)		46.3 µM (inactive)	76.2 µM (inactive)	> 100 µM (inactive)	> 100 µM (inactive)
COC(=O)C(NC(=O)C(CC(=O)OC(C)(C)C)NC(=O)OC(C)(C)C)C(O)c1ccccc1 (configuration not stated)	> 100 µM (inactive)	> 100 µM (inactive)	> 100 µM	> 100 µM (inactive)	> 100 µM (inactive)	> 100 µM (inactive)	> 100 µM (inactive)	> 100 µM (inactive)	> 100 µM (inactive)	> 100 µM (inactive)		> 100 µM (inactive)	16.1 µM (inactive)	> 100 µM (inactive)	> 100 µM (inactive)		> 100 µM (inactive)	> 100 µM (inactive)	74.5 µM (inactive)	> 100 µM (inactive)
CC(C)(C)OC(=O)n1cc(C2CNC(=O)C23CCC(=O)N3Cc2ccccc2)c2ccccc21 (configuration not stated)	24.7 µM (inactive)	15.8 µM (inactive)		29.9 µM (inactive)	17.3 µM (inactive)	25.5 µM (inactive)	16.8 µM (inactive)	36.9 µM (inactive)	23.2 µM (inactive)		17.7 µM (inactive)	16.9 µM (inactive)	26.2 µM (inactive)	33.3 µM (inactive)	18.1 µM (inactive)	32.4 µM (inactive)	26 µM (inactive)	18.7 µM (inactive)	27 µM (inactive)	
CNc1ccc([S+]([O-])Nc2ccc(OC)cc2)cc1 (configuration not stated)	74.8 µM (inactive)	29.2 µM (inactive)	> 100 µM	> 100 µM (inactive)	11.4 µM (inactive)	3.86 µM (inactive)	17.1 µM (inactive)	51.8 µM (inactive)	> 100 µM (inactive)	86.3 µM (inactive)	> 100 µM (inactive)	19.3 µM (inactive)	49.2 µM (inactive)	> 100 µM (inactive)		> 100 µM (inactive)	31.8 µM (inactive)	43.4 µM (inactive)	> 100 µM (inactive)	93.3 µM (inactive)
COc1cc2c(cc1OC)-c1[nH]c3ccc(C#N)cc3c1CC(=O)N2	3.68 µM (inactive)	0.463 µM (active)	4.02 µM	0.861 µM (active)	0.759 µM (active)	1.71 µM (inactive)	> 100 µM (inactive)	2.65 µM (inactive)	12.2 µM (inactive)	4.2 µM (inactive)	6.14 µM (inactive)	3.23 µM (inactive)	> 100 µM (inactive)	> 100 µM (inactive)	0.44 µM (active)		> 100 µM (inactive)	2.61 µM (inactive)	> 52 µM (inactive)	> 26.3 µM (inactive)
CC1(C)C2CCC(CN)(C2)C1N (configuration not stated)	> 100 µM (inactive)	> 100 µM (inactive)	> 100 µM	> 100 µM (inactive)	> 100 µM (inactive)	> 100 µM (inactive)	> 100 µM (inactive)	> 100 µM (inactive)	> 100 µM (inactive)	> 100 µM (inactive)	> 100 µM (inactive)	> 100 µM (inactive)	> 100 µM (inactive)	> 100 µM (inactive)	> 54.5 µM (inactive)		> 100 µM (inactive)	> 100 µM (inactive)	14.8 µM (inactive)	> 100 µM (inactive)
C=CCN(c1cc(O)c2c(c(C)cn2S(=O)(=O)c2ccccc2)c1[N+](=O)[O-])S(C)(=O)=O	> 100 µM (inactive)	> 100 µM (inactive)	> 100 µM	> 100 µM (inactive)	> 100 µM (inactive)	> 100 µM (inactive)	> 100 µM (inactive)	42.4 µM (inactive)	> 100 µM (inactive)	> 100 µM (inactive)	48.5 µM (inactive)	51.4 µM (inactive)	> 100 µM (inactive)	> 100 µM (inactive)	> 100 µM (inactive)		40.7 µM (inactive)	> 100 µM (inactive)	> 100 µM (inactive)	> 100 µM (inactive)
CSc1s[s+]c(SC)c1-c1ccccc1	14.1 µM (inactive)	18.4 µM (inactive)	16.4 µM	25.4 µM (inactive)	17.6 µM (inactive)	16 µM (inactive)	12.2 µM (inactive)	46.1 µM (inactive)	16.9 µM (inactive)	15.7 µM (inactive)	17.6 µM (inactive)	15.7 µM (inactive)	15.9 µM (inactive)	16.6 µM (inactive)			32.6 µM (inactive)	19.4 µM (inactive)	14.4 µM (inactive)	
COc1cc(O)c(C(=O)/C=C/c2ccccc2)c(OC)c1 [FLAVOKAWAIN B]	4.62 µM (inactive)	14.5 µM (inactive)	4.51 µM	3.2 µM (inactive)	4.53 µM (inactive)	3.52 µM (inactive)	7.64 µM (inactive)	5.37 µM (inactive)	5.97 µM (inactive)	3.64 µM (inactive)	13 µM (inactive)	9.27 µM (inactive)	11.6 µM (inactive)	3.47 µM (inactive)		1.85 µM (inactive)	6.82 µM (inactive)	4.6 µM (inactive)	10.8 µM (inactive)	3.34 µM (inactive)
O=C1NCC2(CCN(CCCC3(c4ccc(F)cc4)OCCO3)CC2)N1c1ccccc1	> 100 µM (inactive)	> 100 µM (inactive)	> 100 µM	> 100 µM (inactive)	> 100 µM (inactive)	> 100 µM (inactive)	> 100 µM (inactive)	> 100 µM (inactive)	> 100 µM (inactive)	> 100 µM (inactive)	> 100 µM (inactive)	> 100 µM (inactive)		> 100 µM (inactive)	66.5 µM (inactive)	> 100 µM (inactive)	> 100 µM (inactive)	> 100 µM (inactive)	70.6 µM (inactive)	> 100 µM (inactive)
Cc1ccccc1/N=N/c1ccc(N/N=C2/CCCNC2=O)c(C)c1	> 100 µM (inactive)	> 100 µM (inactive)	> 100 µM	> 100 µM (inactive)	> 100 µM (inactive)	> 100 µM (inactive)	> 100 µM (inactive)	34.6 µM (inactive)	> 100 µM (inactive)		> 100 µM (inactive)	45.2 µM (inactive)	> 100 µM (inactive)	> 100 µM (inactive)		36.1 µM (inactive)	33 µM (inactive)	> 100 µM (inactive)	> 100 µM (inactive)	> 100 µM (inactive)
CCOC(=O)c1nc2c3c(ncn2n1)Oc1c(c(-c2ccccc2)nn1-c1ccccc1)C3c1ccc(Cl)cc1 (configuration not stated)	> 100 µM (inactive)	> 100 µM (inactive)	> 100 µM	> 100 µM (inactive)		15.1 µM (inactive)	> 100 µM (inactive)		> 100 µM (inactive)	> 100 µM (inactive)	> 100 µM (inactive)	> 100 µM (inactive)	> 100 µM (inactive)	> 100 µM (inactive)	> 100 µM (inactive)	> 100 µM (inactive)	> 100 µM (inactive)	> 100 µM (inactive)	> 100 µM (inactive)	> 100 µM (inactive)
CN1CC=C(OP(=O)(NCc2ccccc2)N(CCCl)CCCl)CC1 (configuration not stated)	> 100 µM (inactive)	> 100 µM (inactive)	> 100 µM	> 100 µM (inactive)	> 100 µM (inactive)	> 100 µM (inactive)	> 100 µM (inactive)	> 100 µM (inactive)	> 100 µM (inactive)	> 100 µM (inactive)	> 100 µM (inactive)		> 100 µM (inactive)	> 100 µM (inactive)	89.3 µM (inactive)	> 100 µM (inactive)	> 100 µM (inactive)	> 100 µM (inactive)	70.5 µM (inactive)	95.3 µM (inactive)
